How the values were obtained:
[1] = target: T1, Human Indoleamine 2,3-dioxygenase (IDO) (Homo sapiens, UniProt P14902); experiment: Human IDO enzymatic assay (kynurenine level); format: biochemical; settings: 6 nM IDO, 10 μM L-Trp; geometric mean; read-out: IDO1 GMean: IC50 (μM) (Biochemical Assay)
T1 construct: His tag (N); made in house; host or cells: E. coli
Outline: (§1)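 IDO conditions: 6 nM His-IDO, 10 μM L-Trp, 5 μM methylene blue, 20 min, RT. TDO conditions: 1 nM His-TDO, 350 μM L-Trp, 0.4 μM methylene blue, 70 min, RT. Both used pH 6.5 phosphate plus ascorbate/catalase, TCA stop at 50° C, kynurenine readout, nonlinear-regression IC50.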

[2] = target: T2, Human Tryptophan 2,3-dioxygenase (TDO) (Homo sapiens, UniProt P48775); experiment: Human TDO enzymatic assay (kynurenine level); format: biochemical; settings: 1 nM TDO, 350 μM L-Trp; geometric mean; read-out: TDO GMean: IC50 (μM) (Biochemical Assay)
T2 construct: His tag (N); made in house; host or cells: E. coli
T2 sequence (P48775 whole entry): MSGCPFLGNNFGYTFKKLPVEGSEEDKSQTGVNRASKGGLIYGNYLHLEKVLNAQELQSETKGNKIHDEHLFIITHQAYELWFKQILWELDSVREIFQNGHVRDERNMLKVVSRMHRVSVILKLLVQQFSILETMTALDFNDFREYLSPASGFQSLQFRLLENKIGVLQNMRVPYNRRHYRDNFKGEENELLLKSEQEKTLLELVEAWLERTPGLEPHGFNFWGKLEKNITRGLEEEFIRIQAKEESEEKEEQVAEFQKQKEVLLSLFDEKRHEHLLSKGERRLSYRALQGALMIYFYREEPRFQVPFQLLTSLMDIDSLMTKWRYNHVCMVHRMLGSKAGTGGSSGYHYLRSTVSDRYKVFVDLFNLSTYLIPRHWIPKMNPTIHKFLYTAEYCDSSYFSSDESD
Outline: as §1

T1 sequence (P14902 whole entry): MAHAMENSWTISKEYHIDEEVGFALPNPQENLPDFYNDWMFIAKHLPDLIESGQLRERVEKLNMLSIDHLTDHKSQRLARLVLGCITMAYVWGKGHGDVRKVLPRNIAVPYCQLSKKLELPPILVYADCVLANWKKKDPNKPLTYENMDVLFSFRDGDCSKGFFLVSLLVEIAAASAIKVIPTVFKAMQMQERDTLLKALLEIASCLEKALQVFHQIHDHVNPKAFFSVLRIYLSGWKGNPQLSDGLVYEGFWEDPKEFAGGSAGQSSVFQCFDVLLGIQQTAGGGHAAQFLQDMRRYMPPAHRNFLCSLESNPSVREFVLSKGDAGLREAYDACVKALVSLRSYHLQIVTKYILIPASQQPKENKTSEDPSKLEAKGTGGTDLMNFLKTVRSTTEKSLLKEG

| SMILES | IC50 [1] [µM] | IC50 [2] [µM] |
| --- | --- | --- |
| CC(C)(C1CCN(C(=O)Nc2ccc(F)cn2)CC1)[C@H](O)c1cc(Cl)cc2cn[nH]c12 [Compound P-0658, (S)-4-(1-(5-chloro-1H-indazol-7-yl)-1-hydroxy-2-methylpropan-2-yl)-N-(5-fluoropyridin-2-yl)piperidine-1-carboxamide] | 0.0001 to 10 | 0.0001 to 10 |
| CC(C)(C1CCN(C(=O)C2(F)CC2)CC1)[C@H](O)c1cc(Cl)cc2cn[nH]c12 [Compound P-0659, (S)-(4-(1-(5-chloro-1H-indazol-7-yl)-1-hydroxy-2-methylpropan-2-yl)piperidin-1-yl)(1-fluorocyclopropyl) methanone] | 0.0001 to 10 | 0.0001 to 10 |
| CC(C)(C1CCN(C(=O)Nc2ccc(F)cc2)CC1)C(O)c1cc(Cl)cc2[nH]ncc12 (stereo not drawn) [Compound P-0660, 4-(1-(6-chloro-1H-indazol-4-yl)-1-hydroxy-2-methylpropan-2-yl)-N-(4-fluorophenyl) piperidine-1-carboxamide] | 0.0001 to 10 | 0.0001 to 10 |
| CC(C)(C1CCN(C(=O)C2(F)CC2)CC1)C(O)c1cc(Cl)cc2[nH]ncc12 (stereo not drawn) [Compound P-0661, (4-(1-(6-chloro-1H-indazol-4-yl)-1-hydroxy-2-methylpropan-2-yl)piperidin-1-yl)(1-fluorocyclopropyl) methanone] | 0.0001 to 10 | 0.0001 to 10 |
| CN(C)C(=O)N1CCC(C(C)(C)[C@H](O)c2cc(Cl)cc3cn[nH]c23)CC1 [Compound P-0662, (S)-4-(1-(5-chloro-1H-indazol-7-yl)-1-hydroxy-2-methylpropan-2-yl)-N,N-dimethylpiperidine-1-carboxamide] | 0.0001 to 10 | 0.0001 to 10 |
| CC(C)(C1CCN(C(=O)C(F)(F)F)CC1)[C@H](O)c1cc(Cl)cc2cn[nH]c12 [Compound P-0663, (S)-1-(4-(1-(5-chloro-1H-indazol-7-yl)-1-hydroxy-2-methylpropan-2-yl)piperidin-1-yl)-2,2,2-trifluoroethan-1-one] | 0.0001 to 10 | 0.0001 to 10 |
| CC(C)(C1CCN(C(=O)NCCCO)CC1)[C@H](O)c1cc(Cl)cc2cn[nH]c12 [Compound P-0665, (S)-4-(1-(5-chloro-1H-indazol-7-yl)-1-hydroxy-2-methylpropan-2-yl)-N-(3-hydroxypropyl) piperidine-1-carboxamide] | 0.0001 to 10 | 0.0001 to 10 |
| CC(C)(O)CNC(=O)N1CCC(C(C)(C)[C@H](O)c2cc(Cl)cc3cn[nH]c23)CC1 [Compound P-0666, (S)-4-(1-(5-chloro-1H-indazol-7-yl)-1-hydroxy-2-methylpropan-2-yl)-N-(2-hydroxy-methylpropyl) piperidine-1-carboxamide] | 0.0001 to 10 | 0.0001 to 10 |
| CC(C)(C1CCN(C(=O)NCC2(O)COC2)CC1)[C@H](O)c1cc(Cl)cc2cn[nH]c12 [Compound P-0667, (S)-4-(1-(5-chloro-1H-indazol-7-yl)-1-hydroxy-2-methylpropan-2-yl)-N-((3-hydroxyoxetan-3-yl)methyl)piperidine-1-carboxamide] | 0.0001 to 10 | 0.0001 to 10 |
| C[C@H](CO)NC(=O)N1CCC(C(C)(C)[C@H](O)c2cc(Cl)cc3cn[nH]c23)CC1 [Compound P-0668, 4-((S)-1-(5-chloro-1H-indazol-7-yl)-1-hydroxy-2-methylpropan-2-yl)-N-((R)-1-hydroxypropan-2-yl)piperidine-1-carboxamide] | 0.0001 to 10 | 0.0001 to 10 |
| C[C@@H](CO)NC(=O)N1CCC(C(C)(C)[C@H](O)c2cc(Cl)cc3cn[nH]c23)CC1 [Compound P-0669, 4-((S)-1-(5-chloro-1H-indazol-7-yl)-1-hydroxy-2-methylpropan-2-yl)-N-((S)-1-hydroxypropan-2-yl)piperidine-1-carboxamide] | 0.0001 to 10 | 0.0001 to 10 |
| C[C@@H](O)CNC(=O)N1CCC(C(C)(C)[C@H](O)c2cc(Cl)cc3cn[nH]c23)CC1 [Compound P-0670, 4-((S)-1-(5-chloro-1H-indazol-7-yl)-1-hydroxy-2-methylpropan-2-yl)-N-((R)-2-hydroxypropyl) piperidine-1-carboxamide] | 0.0001 to 10 | 0.0001 to 10 |

Reference: US10508085B2, “Compounds and methods for IDO and TDO modulation, and indications therefor” (Plexxikon Inc., priority 2016, dated 2019)
